Measurements published in article PMC12993615 (The journal of pain, 2024).

Columns and labels:
FABP4 = biological target: T1, FABP4 (Homo sapiens, UniProt P15090); experiment: FABP4 binding, commercially available kit (Cayman Chemical); conditions: commercial kit
T1 construct: purchased Cayman Chemical
Procedure: Purified FABPs were incubated with 11-(dansylamino)undecanoic acid (DAUDA) (FABP3, FABP5) or 8-anilino-1-naphthalenesulfonic acid (ANS) (FABP7) in the presence or absence of FABP inhibitors (.01–200 μM) in the binding assay buffer. FABP4 binding was assessed using a commercially available kit (Cayman Chemical, Ann Arbor). In all cases, arachidonic acid (10 μM) was included to account for maximal probe displacement. Loss of fluorescence intensity was monitored with an F5 Filtermax Multi-Mode Microplate Reader (Molecular Devices, Sunnyvale) using the following excitation and emission wavelengths (DAUDA: ex./em.= 360/535 nm; ANS: ex./em. = 360/465 nm). Following background subtraction, the fluorescence intensity values were normalised and analyzed via a one-site binding model using the GraphPadPrism (version 9.2). Ki values were determined using the following equation: Ki= IC50/(1 + ([Probe]/Kd).

[1] = Oral bioavailability / pharmacokinetics in rats; format: in vivo; conditions: Sprague Dawley, rat, plasma, male rats
Procedure: Following intravenous and oral administration, blood samples (ca .2 mL) were collected from the jugular vein. For IV group, blood samples were collected at .083, .25, .5, 1, 2, 4, 6, 8, 24 hours post-dose. For PO group, blood samples were collected at .25, .5, 1, 2, 4, 6, 8, 24 hours post-dose. Blood samples were collected into tubes containing the anticoagulant K2EDTA. Plasma samples were prepared by centrifugation and dispensed into 1.5 mL matrix tubes and stored in a freezer (−75 ± 1°C) prior to analysis.

in vivo [2] = experiment: in vivo; parameters: species or system Wistar Han rats; conditions: both sexes, Wistar Han, rat, po, 500 mg/kg
Procedure: Twenty-nine male and 29 female Wistar Han rats were assigned to 7 groups (4 main and 3 toxicokinetic (TK) groups), with 5 rats/sex/group in the main groups and […] in TK groups. Dose formulations were administered twice daily by oral gavage at 100, 300, and 1,000 mg/kg/day (50, 150, and 500 mg/kg/dose) for 14 consecutive days, with a vehicle control group dosed in the same manner. Toxicity was assessed based on clinical signs, daily body weights, food consumption, organ weights, clinical, gross, and anatomic pathology.

in vivo [3] = conditions: both sexes, beagle, dog, po, 500 mg/kg
Description: Examined parameters to assess toxicity included clinical observations, mortality and moribundity cheques, body weights, food consumption, electrocardiogram, TK, clinical chemistry, haematology, coagulation, urinalysis, gross pathology, organ weights, and histopathology.

[4] = test system: oxaliplatin-induced mechanical allodynia; experiment: 7-day treatment of established OIPN, paw withdrawal threshold; format: in vivo, male Sprague Dawley rats; conditions: 25 mg/kg BID PO 7 days, across Days 7 and 14, P < .05
Procedure: Male Sprague Dawley rats (150–210 g) were housed in groups of 4 in intra-ventilated Perspex home cages. Humidity, temperature (21 ± 1 °C), and lighting (light-dark cycle of 12:12 hours) were controlled and maintained in the home cages, with food and water available ad libitum. Rats acclimatised to the home cages for at least 1 week. All experiments were carried out according to the Animals (Scientific Procedures) Act, 1986 (U.K. Government Home Office). The study was performed under the Home Office project licence number PP0847012. OIPN was established with a single dose of OXA (10 mg/kg, IP).
Body weight was monitored throughout the study, and terminal plasma and whole brain samples were taken for bioanalysis.
Tactile allodynia (primary outcome measure) was assessed using paw withdrawal threshold (PWT), a measure of pain sensitivity. PWT was evaluated using calibrated von-Frey monofilaments (Touch-Test Sensory Evaluator; Scientific Marketing Associates) applied to the plantar surface of the left hind paw. PWT was determined by increasing and decreasing stimulus intensity and estimated using Dixon’s up-down method.[38],[39]
To acquire baseline readings, pain behaviour was assessed on 3 consecutive days (Days −3, −2, −1). […] NPB expressed as a percentage change from HBL was calculated as follows (HBL-NPB)/HBL*100. […]

[5] = test system: oxaliplatin-induced thermal hyperalgesia; experiment: 7-day treatment of established OIPN, cold plate latency; format: in vivo, male Sprague Dawley rats; conditions: 7 days dosing, vehicle close to HBL by Day 14
Procedure: Male Sprague Dawley rats (150–210 g) were housed in groups of 4 in intra-ventilated Perspex home cages. Humidity, temperature (21 ± 1 °C), and lighting (light-dark cycle of 12:12 hours) were controlled and maintained in the home cages, with food and water available ad libitum. Rats acclimatised to the home cages for at least 1 week. All experiments were carried out according to the Animals (Scientific Procedures) Act, 1986 (U.K. Government Home Office). The study was performed under the Home Office project licence number PP0847012. OIPN was established with a single dose of OXA (10 mg/kg, IP). […] Body weight was monitored throughout the study, and terminal plasma and whole brain samples were taken for bioanalysis. Thermal hyperalgesia was assessed using a cold plate (Bioseb, France) set at a fixed temperature of 15 °C. Latency to the first escape behaviour from the plate was measured indicating discomfort to the thermal stimulation. Escape behaviours typically consist of paw licking, jumping, or withdrawal. The maximal threshold of latency was set at 150 seconds. To acquire baseline readings, pain behaviour was assessed on 3 consecutive days (Days −3, −2, −1). The mean of Day −2 and Day −1 was considered the healthy baseline (HBL) prior to OIPN induction. […] NPB expressed as a percentage change from HBL was calculated as follows (HBL-NPB)/HBL*100. […]

T1 sequence (P15090 whole entry, species assumed): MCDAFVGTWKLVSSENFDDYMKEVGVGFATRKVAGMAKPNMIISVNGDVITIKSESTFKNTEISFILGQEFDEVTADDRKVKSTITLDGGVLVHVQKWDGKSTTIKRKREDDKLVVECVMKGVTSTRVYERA

Structure (SMILES): COc1ccccc1[C@@H]1[C@H](C(=O)O)[C@@H](c2ccccc2OC)[C@H]1C(=O)OC1Cc2ccccc2C1 [ART26.12, (+)–3-Indan-2-yloxycarbonyl-2,4-bis(2-methoxyphenyl)cyclobutanecarboxylic acid]
- Ki (FABP4): > 100 µM
- clearance ([1]; IV 2 mg/kg): 14 mL/min/kg
- half-life ([1]; IV 2 mg/kg): 2.6 h
- Vd ([1]; IV 2 mg/kg, read-out: volume of distribution): 1.3 L/kg
- Tmax ([1]; PO 10 mg/kg): ~0.5 h
- Tmax ([1]; PO 300 mg/kg): ~6.6 h
- bioavailability ([1]; PO 300 mg/kg): 163%
- half-life ([1]; PO 300 mg/kg): 3.8 h
- bioavailability ([1]; single oral dose 10 mg/kg): 73%
- NOAEL at 14 days (in vivo [2]): 1000 mg/kg/day
- NOAEL at 14 days (in vivo [3]): 1000 mg/kg/day
- PWT scores versus vehicle [4]: significantly higher PWT scores than vehicle
- cold plate latency [5]: no effect on cold plate latency
